Several values for one entry are separate records, joined by “and”; a condition that tells them apart may be missing. Identical values can stand only once. Like-named read-outs stand apart in the source and are kept apart here.
Assay: Pharmacokinetic study of Compound 20 in ICR mice
Format: in vivo
Conditions: for CLz/F / t1/2Z / concentration at 0 h / concentration at 0.083 h / concentration at 0.25 h / concentration at 0.5 h / concentration at 1 h / concentration at 2 h / concentration at 4 h / concentration at 6 h / concentration at 8 h / concentration at 24 h / AUC(0-inf) / AUC(0-t) / Cmax / Tmax / Vd/F: plasma; for CLz/F / t1/2Z / AUC(0-inf) / AUC(0-t) / Cmax / Tmax / Vd/F: mean; for concentration at 0 h / concentration at 0.083 h / concentration at 0.25 h / concentration at 0.5 h / concentration at 1 h / concentration at 2 h / concentration at 4 h / concentration at 6 h / concentration at 8 h / concentration at 24 h / AUC(0-inf) / AUC(0-t) / Cmax / Tmax / Vd/F: male, mouse; for concentration at 0 h / concentration at 0.083 h / concentration at 0.25 h / concentration at 0.5 h / concentration at 1 h / concentration at 2 h / concentration at 4 h / concentration at 6 h / concentration at 8 h / concentration at 24 h: ICR, 100 mg/kg; for concentration at 6 h / concentration at 24 h: n = 3; for Vd/F: read-out: Vz/F
Procedure: 60 male ICR mice were split into two groups of 30. In each group the mice were prescribed Compound 20 at a dosage of 100 mg/kg. This dose was administered orally in group 1 and intraperitoneally in group 2. Each group of 30 mice was subdivided into groups of 3 mice. Blood samples were taken through orbital sinus method at 0, 0.083, 0.25, 0.5, 1, 2, 4, 6, 8 and 24 hours after administering Compound 20 and taken into tubes with anticoagulant at room temperature at least 30 minutes prior to centrifugation, then centrifuged at 10000 rpm for 5 minutes at 4° C. to separate plasma from the blood samples. Following centrifugation, the resulting serum was transferred to clean tubes and stored frozen at −80° C. Immediately following the blood samples, the brain tissue samples of mice were removed and stored frozen at −80° C.
A 20% brain homogenate was prepared by weighing brain tissue sample and adding, corresponding volume of saline into the manual homogenator. The dilution factor was 5 (w/v=1 g: 4 mL). The brain tissue sample was grinded slowly and repeatedly until it has become homogenous.
Plasma and Brain samples were centrifuged at 15777×g for 5 minutes, and 180 ul of supernatant was placed in a 96-well assay plate. To each well, 200 ul of a 50% ACN/H2O was added and the plates were shake-mixed for 3 minutes. 5 ul aliquots of each well were then analyzed using LC-MS/MS.
The standard non-compartmental model was used to generate the pharmacokinetic parameters: Cmax, Tmax, t1/2, AUC0->last, AUC0->inf, CL/F, and Vz/F. The maximum plasma concentration, Cmax, and its corresponding time, Tmax were directly recorded. Elimination rate constant kel was determined by linear regression of the terminal points of the semi-log plot of concentration against time. Elimination half-life was calculated by the formula; t12=0.693/kel. The Area Under the curve value from time 0 to 24 hours was defined as AUCt->last and calculated using the linear trapezoidal rule.

## COc1cc(N(c2ccccc2)c2ccccc2)ccc1/C=C(\C#N)C(=O)O [Compound 20]
100 mg/kg i.p., 0 h
  Plasma Concentration, individual animals (1#, 2#, 3#): 0 ng/mL
100 mg/kg i.p., 0.083 h
  Plasma Concentration, individual animals (1#, 2#, 3#): 18800 ng/mL and 33300 ng/mL and 40400 ng/mL
100 mg/kg i.p., 0.25 h
  Plasma Concentration, individual animals (1#, 2#, 3#): 78300 ng/mL and 29400 ng/mL and 60100 ng/mL
100 mg/kg i.p., 0.5 h
  Plasma Concentration, individual animals (1#, 2#, 3#): 30400 ng/mL and 30200 ng/mL
100 mg/kg i.p., 1 h
  Plasma Concentration, individual animals (1#, 2#, 3#): 45600 ng/mL and 26900 ng/mL
100 mg/kg i.p., 2 h
  Plasma Concentration, individual animals (1#, 2#, 3#): 27800 ng/mL and 38900 ng/mL
100 mg/kg i.p., 4 h
  Plasma Concentration, individual animals (1#, 2#, 3#): 24000 ng/mL and 26400 ng/mL
100 mg/kg i.p., 6 h
  Plasma Concentration, individual animals (1#, 2#, 3#): 14200 ng/mL and 3980 ng/mL and 5360 ng/mL
100 mg/kg i.p., 8 h
  Plasma Concentration, individual animals (1#, 2#, 3#): 3160 ng/mL and 2590 ng/mL
100 mg/kg i.p., 24 h
  Plasma Concentration, individual animals (1#, 2#, 3#): 41.8 ng/mL and 249 ng/mL and 70.9 ng/mL
100 mg/kg i.p.
  CLz/F: 8.32 mL/min/kg
  t1/2Z: 191 min
100 mg/kg p.o. and i.p.
  pharmacokinetics parameters (overall assessment): satisfactory
100 mg/kg p.o., 0 h
  Plasma Concentration, individual animals (1#, 2#, 3#): 0 ng/mL
100 mg/kg p.o., 0.083 h
  Plasma Concentration, individual animals (1#, 2#, 3#): 4050 ng/mL and 4040 ng/mL
100 mg/kg p.o., 0.25 h
  Plasma Concentration, individual animals (1#, 2#, 3#): 11300 ng/mL and 6400 ng/mL
100 mg/kg p.o., 0.5 h
  Plasma Concentration, individual animals (1#, 2#, 3#): 19100 ng/mL and 20700 ng/mL and 6580 ng/mL
100 mg/kg p.o., 1 h
  Plasma Concentration, individual animals (1#, 2#, 3#): 3610 ng/mL and 4830 ng/mL and 12700 ng/mL
100 mg/kg p.o., 2 h
  Plasma Concentration, individual animals (1#, 2#, 3#): 3270 ng/mL and 1380 ng/mL and 4790 ng/mL
100 mg/kg p.o., 4 h
  Plasma Concentration, individual animals (1#, 2#, 3#): 2880 ng/mL and 5160 ng/mL and 1240 ng/mL
100 mg/kg p.o., 6 h
  Plasma Concentration, individual animals (1#, 2#, 3#): 1470 ng/mL and 2230 ng/mL and 3720 ng/mL
100 mg/kg p.o., 8 h
  Plasma Concentration, individual animals (1#, 2#, 3#): 5780 ng/mL and 2370 ng/mL and 3880 ng/mL
100 mg/kg p.o., 24 h
  Plasma Concentration, individual animals (1#, 2#, 3#): 111 ng/mL and 19.3 ng/mL and 12.8 ng/mL
100 mg/kg p.o.
  CLz/F: 26 mL/min/kg
  t1/2Z: 182 min
ip, 100 mg/kg i.p., 0 h, n = 3, read-out: Plasma Concentration, Mean
  concentration at 0 h: 0 ng/mL
ip, 100 mg/kg i.p., 0 h, read-out: Plasma Concentration, individual animals (1#, 2#, 3#)
  concentration at 0 h: 0 ng/mL
ip, 100 mg/kg i.p., 0.083 h, n = 3, read-out: Plasma Concentration, Mean
  concentration at 0.083 h: 30800 ng/mL
ip, 100 mg/kg i.p., 0.25 h, n = 3, read-out: Plasma Concentration, Mean
  concentration at 0.25 h: 55900 ng/mL
ip, 100 mg/kg i.p., 0.5 h, n = 3, read-out: Plasma Concentration, Mean
  concentration at 0.5 h: 37300 ng/mL
ip, 100 mg/kg i.p., 0.5 h, read-out: Plasma Concentration, individual animals (1#, 2#, 3#)
  concentration at 0.5 h: 51400 ng/mL
ip, 100 mg/kg i.p., 1 h, n = 3, read-out: Plasma Concentration, Mean
  concentration at 1 h: 34800 ng/mL
ip, 100 mg/kg i.p., 1 h, read-out: Plasma Concentration, individual animals (1#, 2#, 3#)
  concentration at 1 h: 31800 ng/mL
ip, 100 mg/kg i.p., 2 h, n = 3, read-out: Plasma Concentration, Mean
  concentration at 2 h: 35200 ng/mL
ip, 100 mg/kg i.p., 2 h, read-out: Plasma Concentration, individual animals (1#, 2#, 3#)
  concentration at 2 h: 38800 ng/mL
ip, 100 mg/kg i.p., 4 h, n = 3, read-out: Plasma Concentration, Mean
  concentration at 4 h: 25100 ng/mL
ip, 100 mg/kg i.p., 4 h, read-out: Plasma Concentration, individual animals (1#, 2#, 3#)
  concentration at 4 h: 25000 ng/mL
ip, 100 mg/kg i.p., 6 h
  concentration at 6 h: 7850 ng/mL
ip, 100 mg/kg i.p., 8 h, n = 3, read-out: Plasma Concentration, Mean
  concentration at 8 h: 2840 ng/mL
ip, 100 mg/kg i.p., 8 h, read-out: Plasma Concentration, individual animals (1#, 2#, 3#)
  concentration at 8 h: 2760 ng/mL
ip, 100 mg/kg i.p., 24 h
  concentration at 24 h: 121 ng/mL
po, 100 mg/kg p.o., 0 h, n = 3, read-out: Plasma Concentration, Mean
  concentration at 0 h: 0 ng/mL
po, 100 mg/kg p.o., 0 h, read-out: Plasma Concentration, individual animals (1#, 2#, 3#)
  concentration at 0 h: 0 ng/mL
po, 100 mg/kg p.o., 0.083 h, n = 3, read-out: Plasma Concentration, Mean
  concentration at 0.083 h: 3430 ng/mL
po, 100 mg/kg p.o., 0.083 h, read-out: Plasma Concentration, individual animals (1#, 2#, 3#)
  concentration at 0.083 h: 2210 ng/mL
po, 100 mg/kg p.o., 0.25 h, n = 3, read-out: Plasma Concentration, Mean
  concentration at 0.25 h: 9130 ng/mL
po, 100 mg/kg p.o., 0.25 h, read-out: Plasma Concentration, individual animals (1#, 2#, 3#)
  concentration at 0.25 h: 9690 ng/mL
po, 100 mg/kg p.o., 0.5 h, n = 3, read-out: Plasma Concentration, Mean
  concentration at 0.5 h: 15500 ng/mL
po, 100 mg/kg p.o., 1 h, n = 3, read-out: Plasma Concentration, Mean
  concentration at 1 h: 7050 ng/mL
po, 100 mg/kg p.o., 2 h, n = 3, read-out: Plasma Concentration, Mean
  concentration at 2 h: 3150 ng/mL
po, 100 mg/kg p.o., 4 h, n = 3, read-out: Plasma Concentration, Mean
  concentration at 4 h: 3090 ng/mL
po, 100 mg/kg p.o., 6 h
  concentration at 6 h: 2470 ng/mL
po, 100 mg/kg p.o., 8 h, n = 3, read-out: Plasma Concentration, Mean
  concentration at 8 h: 4010 ng/mL
po, 100 mg/kg p.o., 24 h
  concentration at 24 h: 47.7 ng/mL
ip, 100 mg/kg i.p.
  AUC(0-inf): 201 µg·h/mL
  AUC(0-t): 201 µg·h/mL
  Cmax: 61300 ng/mL
  Tmax: 30 min
  Vd/F: 2.35 L/kg
po, 100 mg/kg p.o.
  AUC(0-inf): 66 µg·h/mL
  AUC(0-t): 65.7 µg·h/mL
  Cmax: 17500 ng/mL
  Tmax: 40 min
  Vd/F: 6.55 L/kg

Reference: patent US9296728B2, “Therapeutic compounds” (Regents of the University of Minnesota, priority 2012, dated 2016)
